Source: patent US7592457B2 (Korea Research Institute of Chemical Technology, priority 2004, dated 2009)

Legend:
5-HT2a = molecular target: T1, 5-HT2a (Homo sapiens, UniProt P28223); assay: Radioligand binding, 5-HT2a ([3H]Ketanserin); conditions: read-out: Binding affinity (Inhibition rate % at 10 μM) 5HT2a
T1 construct: purchased Euroscreen/BioSignal Packard Inc
Procedure: (§1) Radioligand bindings were performed according to the test method provided by the supplier of receptor membrane (Euroscreen/BioSignal Packard Inc.).

5-HT1a = molecular target: T2, 5-HT1a (Homo sapiens, UniProt P08908); assay: Radioligand binding, 5-HT1a ([3H]8-OH-DPAT); conditions: read-out: Binding affinity (Inhibition rate % at 10 μM) 5HT1a
T2 construct: purchased Euroscreen/BioSignal Packard Inc
T2 sequence (P08908 1-422): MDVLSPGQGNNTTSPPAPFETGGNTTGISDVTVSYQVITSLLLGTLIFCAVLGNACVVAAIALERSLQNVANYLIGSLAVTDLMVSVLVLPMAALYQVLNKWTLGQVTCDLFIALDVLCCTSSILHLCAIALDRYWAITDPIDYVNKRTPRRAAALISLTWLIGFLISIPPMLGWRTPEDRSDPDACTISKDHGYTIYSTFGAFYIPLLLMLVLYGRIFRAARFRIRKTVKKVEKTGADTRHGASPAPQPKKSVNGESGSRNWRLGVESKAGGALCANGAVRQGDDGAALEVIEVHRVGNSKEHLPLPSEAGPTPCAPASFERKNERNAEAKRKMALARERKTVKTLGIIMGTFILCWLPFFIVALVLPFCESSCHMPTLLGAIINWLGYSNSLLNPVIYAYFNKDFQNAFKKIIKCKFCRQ
Procedure: as §1

D1 = D1 (Homo sapiens, UniProt P21728); assay: Radioligand binding for selectivity, D1; conditions: read-out: Binding affinity (Inhibition rate % at 10 μM) D1
[1] = molecular target: T3, human serotonin 5-HT6 receptor (Homo sapiens, UniProt P50406); assay: [3H]LSD binding at cloned 5-HT6 receptors; conditions: for IC50: [3H]LSD 1.87 nM, cloned receptor membranes, 37° C., 60 min, read-out: IC50; for inhibition at 10 µM: read-out: Binding affinity (Inhibition rate % at 10 μM) 5HT6
T3 construct: made in house; host or cells: Sf21 insect cells (pBacPAK8 baculovirus vector)

hD2L receptor = molecular target: T4, hD2L receptor (Homo sapiens, UniProt P14416); assay: Radioligand binding, dopamine D2 ([3H]spiperone); conditions: read-out: Binding affinity (Inhibition rate % at 10 μM) D2
T4 construct: purchased BioSignal Packard Inc., Montreal, Canada
Procedure: (§2) The radioligands used were [^3H] spiperone (for hD2L and hD3 receptors, 1 nM) and [^3H] YM-09151-2 (for hD4.2 receptor, 0.06 nM). Radioligand bindings were performed by the protocols provided by the supplier of receptor membranes (BioSignal Packard Inc., Montreal, Canada). Briefly, the buffer used in D2 or D3 receptor binding assay was 50 mM Tris-HCl (pH 7.4), 10 mM MgCl2, 1 mM EDTA, or 50 mM Tris-HCl (pH 7.4), 5 mM MgCl2, 5 mM EDTA, 5 mM KCl, 1.5 mM CaCl2, 120 mM NaCl, respectively. In [^3H] YM-09151-2 receptor binding assays, the buffer containing 50 mM Tris-HCl (pH 7.4), 5 mM MgCl2, 5 mM EDTA, 5 mM KCl and 1.5 mM CaCl2 was used. Nonspecific binding was determined with haloperidol (10 μM) or clozapine (10 μM) for D2 and D3, and D4 receptors, respectively. Competition binding studies were carried out with 7-8 concentrations of the test compound run in duplicate tubes, and isotherms from three assays were calculated by computerized nonlinear regression analysis (GraphPad Prism Program, San Diego, […]) to yield median inhibitory concentration (IC50) values.

5-HT7 = molecular target: T5, 5-HT7 (Homo sapiens, UniProt P34969); assay: Radioligand binding, 5-HT7 ([3H]LSD); conditions: read-out: Binding affinity (Inhibition rate % at 10 μM) 5HT7
T5 construct: purchased Euroscreen/BioSignal Packard Inc
Procedure: as §1

5-HT2c = molecular target: T6, 5-HT2c (Homo sapiens, UniProt P28335); assay: Radioligand binding, 5-HT2c ([3H]Mesulergine); conditions: read-out: Binding affinity (Inhibition rate % at 10 μM) 5HT2c
T6 construct: purchased Euroscreen/BioSignal Packard Inc
T6 sequence (P28335 33-458): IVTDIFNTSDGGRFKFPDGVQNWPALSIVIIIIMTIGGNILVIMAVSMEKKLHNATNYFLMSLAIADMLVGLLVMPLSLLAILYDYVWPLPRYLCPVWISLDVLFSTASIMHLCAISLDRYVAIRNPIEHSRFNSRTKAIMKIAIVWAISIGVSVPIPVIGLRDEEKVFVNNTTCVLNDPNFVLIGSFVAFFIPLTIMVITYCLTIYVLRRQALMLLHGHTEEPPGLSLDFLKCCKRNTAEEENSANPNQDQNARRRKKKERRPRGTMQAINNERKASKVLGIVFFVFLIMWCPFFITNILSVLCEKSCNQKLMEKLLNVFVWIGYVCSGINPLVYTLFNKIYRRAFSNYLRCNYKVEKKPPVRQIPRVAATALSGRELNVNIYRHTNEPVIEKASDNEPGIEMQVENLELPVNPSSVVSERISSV
Procedure: as §1

hD3 receptor = molecular target: T7, hD3 receptor (Homo sapiens, UniProt P35462); assay: Radioligand binding, dopamine D3 ([3H]spiperone); conditions: read-out: Binding affinity (Inhibition rate % at 10 μM) D3
T7 construct: purchased BioSignal Packard Inc., Montreal, Canada
Procedure: as §2

hD4.2 receptor = molecular target: T8, hD4.2 receptor (Homo sapiens, UniProt P21917, DEL265-296); assay: Radioligand binding, dopamine D4 ([3H]YM-09151-2); conditions: read-out: Binding affinity (Inhibition rate % at 10 μM) D4
T8 construct: purchased BioSignal Packard Inc., Montreal, Canada
T8 sequence (P21917 with tags, fused parts or gaps DEL265-296): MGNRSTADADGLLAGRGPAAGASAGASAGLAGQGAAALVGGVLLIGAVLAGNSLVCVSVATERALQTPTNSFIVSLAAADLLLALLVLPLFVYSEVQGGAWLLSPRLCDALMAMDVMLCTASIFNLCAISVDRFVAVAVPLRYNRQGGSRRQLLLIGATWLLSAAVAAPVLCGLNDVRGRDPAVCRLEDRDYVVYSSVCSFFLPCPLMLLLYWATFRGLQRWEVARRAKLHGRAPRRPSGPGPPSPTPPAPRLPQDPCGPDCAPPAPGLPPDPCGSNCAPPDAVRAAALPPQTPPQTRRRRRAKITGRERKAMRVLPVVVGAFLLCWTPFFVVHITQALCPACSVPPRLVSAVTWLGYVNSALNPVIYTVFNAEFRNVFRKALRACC
Procedure: as §2

T3 sequence (P50406 whole entry): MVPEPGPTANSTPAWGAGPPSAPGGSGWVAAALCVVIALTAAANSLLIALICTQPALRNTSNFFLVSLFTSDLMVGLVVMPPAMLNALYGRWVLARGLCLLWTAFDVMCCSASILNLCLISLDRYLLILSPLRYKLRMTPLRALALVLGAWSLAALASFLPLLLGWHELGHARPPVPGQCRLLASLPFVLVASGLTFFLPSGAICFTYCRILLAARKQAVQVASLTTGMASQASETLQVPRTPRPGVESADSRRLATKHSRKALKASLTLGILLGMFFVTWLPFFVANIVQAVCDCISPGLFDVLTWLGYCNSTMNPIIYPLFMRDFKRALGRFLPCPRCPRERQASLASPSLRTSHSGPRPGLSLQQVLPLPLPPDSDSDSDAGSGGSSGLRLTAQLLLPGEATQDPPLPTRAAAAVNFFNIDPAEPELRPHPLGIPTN
T4 sequence (P14416 whole entry): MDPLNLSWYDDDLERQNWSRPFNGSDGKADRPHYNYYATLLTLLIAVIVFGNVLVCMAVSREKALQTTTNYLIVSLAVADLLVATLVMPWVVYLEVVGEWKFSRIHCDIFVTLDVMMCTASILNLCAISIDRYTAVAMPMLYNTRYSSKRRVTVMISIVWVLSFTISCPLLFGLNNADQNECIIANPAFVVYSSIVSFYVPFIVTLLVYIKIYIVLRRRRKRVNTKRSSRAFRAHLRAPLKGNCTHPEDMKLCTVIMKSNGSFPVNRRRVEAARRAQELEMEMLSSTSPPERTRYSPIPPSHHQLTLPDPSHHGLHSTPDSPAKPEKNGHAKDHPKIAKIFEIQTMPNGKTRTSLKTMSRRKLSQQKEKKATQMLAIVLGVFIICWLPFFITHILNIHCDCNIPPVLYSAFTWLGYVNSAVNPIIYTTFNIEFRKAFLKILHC
T1 sequence (P28223 whole entry): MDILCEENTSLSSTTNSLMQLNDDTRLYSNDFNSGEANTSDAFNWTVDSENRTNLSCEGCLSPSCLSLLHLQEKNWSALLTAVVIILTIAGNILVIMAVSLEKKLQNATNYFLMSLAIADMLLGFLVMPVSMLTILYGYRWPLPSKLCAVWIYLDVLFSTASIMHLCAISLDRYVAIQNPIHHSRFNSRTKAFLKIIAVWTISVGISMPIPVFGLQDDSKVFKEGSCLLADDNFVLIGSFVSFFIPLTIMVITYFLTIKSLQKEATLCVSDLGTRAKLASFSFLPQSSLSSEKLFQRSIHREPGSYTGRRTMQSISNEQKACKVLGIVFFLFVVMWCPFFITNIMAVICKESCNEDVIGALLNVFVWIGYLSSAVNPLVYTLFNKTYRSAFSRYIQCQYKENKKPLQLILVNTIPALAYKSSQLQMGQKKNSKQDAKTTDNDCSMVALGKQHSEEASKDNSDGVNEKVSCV
T7 sequence (P35462 whole entry): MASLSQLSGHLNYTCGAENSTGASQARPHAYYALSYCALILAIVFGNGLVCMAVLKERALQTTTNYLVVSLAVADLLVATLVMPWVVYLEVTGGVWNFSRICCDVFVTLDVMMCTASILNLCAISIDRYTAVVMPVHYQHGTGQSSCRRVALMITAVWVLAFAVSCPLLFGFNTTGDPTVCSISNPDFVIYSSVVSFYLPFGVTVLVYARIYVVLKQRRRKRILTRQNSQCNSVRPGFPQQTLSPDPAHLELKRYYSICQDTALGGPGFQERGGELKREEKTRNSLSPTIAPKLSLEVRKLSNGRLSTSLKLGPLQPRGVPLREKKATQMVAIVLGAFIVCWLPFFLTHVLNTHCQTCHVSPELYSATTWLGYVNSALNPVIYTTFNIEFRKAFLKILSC
Chain of D1 (P21728 whole entry): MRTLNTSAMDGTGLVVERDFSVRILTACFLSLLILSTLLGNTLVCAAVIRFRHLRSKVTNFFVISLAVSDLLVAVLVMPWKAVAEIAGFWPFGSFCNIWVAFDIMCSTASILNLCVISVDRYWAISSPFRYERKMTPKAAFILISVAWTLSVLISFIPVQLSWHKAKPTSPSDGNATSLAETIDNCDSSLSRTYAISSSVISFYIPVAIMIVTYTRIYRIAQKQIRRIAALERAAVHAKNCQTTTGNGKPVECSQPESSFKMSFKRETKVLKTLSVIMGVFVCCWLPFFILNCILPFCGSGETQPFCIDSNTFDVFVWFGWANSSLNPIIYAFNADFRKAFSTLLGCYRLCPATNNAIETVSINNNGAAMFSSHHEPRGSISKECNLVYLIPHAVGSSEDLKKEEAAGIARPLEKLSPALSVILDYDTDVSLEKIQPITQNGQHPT
T5 sequence (P34969 whole entry): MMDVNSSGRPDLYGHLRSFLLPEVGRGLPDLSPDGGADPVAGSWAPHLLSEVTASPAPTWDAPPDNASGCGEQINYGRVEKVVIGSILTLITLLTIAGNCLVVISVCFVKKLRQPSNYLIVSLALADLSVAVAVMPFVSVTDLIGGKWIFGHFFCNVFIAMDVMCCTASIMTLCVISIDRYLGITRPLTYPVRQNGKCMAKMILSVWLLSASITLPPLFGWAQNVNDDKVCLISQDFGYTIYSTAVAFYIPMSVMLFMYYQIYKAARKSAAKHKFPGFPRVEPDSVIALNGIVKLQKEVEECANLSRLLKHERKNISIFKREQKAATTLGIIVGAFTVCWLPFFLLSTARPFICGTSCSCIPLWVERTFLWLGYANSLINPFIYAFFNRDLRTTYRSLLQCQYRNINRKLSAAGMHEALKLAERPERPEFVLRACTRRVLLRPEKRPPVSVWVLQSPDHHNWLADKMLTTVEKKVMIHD

SMILES | inhibition at 10 µM (5-HT2a) | inhibition at 10 µM (5-HT1a) | inhibition at 10 µM (D1) | IC50 [1] | inhibition at 10 µM [1] | inhibition at 10 µM (hD2L receptor) | inhibition at 10 µM (5-HT7) | inhibition at 10 µM (5-HT2c) | inhibition at 10 µM (hD3 receptor) | inhibition at 10 µM (hD4.2 receptor)
CC1(c2ccc(Br)cc2Br)C(=O)Nc2cc(Cl)cc(Cl)c2C1=O (stereo not drawn) [Example 27, 3-(2,4-dibromo-phenyl)-5,7-dichloro-3-methyl-1H-quinoline-2,4-dione] | 30.8% | 46% | 25.8% | 349 nM | 71.1% | 10.2% | 12.3% | 28.1% | 15.6% | 1.6%
COc1ccc(C2(C)C(=O)Nc3ccccc3C2=O)cc1 (stereo not drawn) [Example 33, 3-(4-methoxy-phenyl)-3-methyl-1H-quinoline-2,4-dione] | 10.7% | 20.4% | 29.5% | 487 nM | 72.4% | 20.9% | 6.6% | 13.5% | 13.1% | 0%
CNc1ccc(C2(C)C(=O)Nc3cc(Cl)cc(Cl)c3C2=O)cc1 (stereo not drawn) [Example 39, 5,7-dichloro-3-methyl-3-(4-methylamino-phenyl)-1H-quinoline-2,4-dione] | 12.1% | 23% | 38.5% | 418 nM | 72% | 19.8% | 9.1% | 13.1% | 8.4% | 10.2%
CC1(c2ccc(I)cc2)C(=O)Nc2cc(Cl)cc(Cl)c2C1=O (stereo not drawn) [Example 16, 5,7-dichloro-3-(4-iodo-phenyl)-3-methyl-1H-quinoline-2,4-dione] | 47.2% | 43.5% | 24.7% | 1550 nM | 70.9% | 20.1% | 50.7% | 34.5% | 10% | 1.3%
CN1CCN(c2cc(Cl)c3c(c2)NC(=O)C(C)(c2ccc([N+](=O)[O-])cc2)C3=O)CC1 (stereo not drawn) [Example 49, 5-chloro-3-methyl-7-(4-methyl-piperazine-1-yl)-3-(4-nitro-phenyl)-1H-quinoline-2,4-dione] | 33.4% | 1.4% | 26% | 1020 nM | 70.2% | 10.5% | 24.4% | 19.8% | 12.4% | 0%
CC1(c2ccccc2)C(=O)Nc2c(Br)cc(Br)cc2C1=O (stereo not drawn) [Example 10, 6,8-dibromo-3-methyl-3-phenyl-1H-quinoline-2,14-dione] | 29.5% | 0% | 13.5% | 1330 nM | 73.4% | 11.2% | 20.7% | 16.8% | 19.5% | 0%
CC1(c2ccc(N)cc2)C(=O)Nc2cc(Cl)cc(Cl)c2C1=O (stereo not drawn) [Example 15, 3-(4-amino-phenyl)-5,7-dichloro-3-methyl-1H-quinoline-2,4-dione] | 16.9% | 52.3% | 4.8% | 254 nM | 73% | 0% | 11.1% | 15.6% | 5.8% | 4.5%
CN1CCN(c2cc(Cl)c3c(c2)NC(=O)C(C)(c2ccc(N)cc2)C3=O)CC1 (stereo not drawn) [Example 48, 3-(4-amino-phenyl) -5-chloro-3-methyl-7-(4-methyl-piperazine-1-yl)-1H-quinoline-2,4-dione] | 37.2% | 35% | 27.4% | 1080 nM | 71.6% | 19.6% | 5.6% | 2.5% | 8.7% | 0%
CC1(c2ccc(O)cc2)C(=O)Nc2ccccc2C1=O (stereo not drawn) [Example 34, 3-(4-hydroxy-phenyl)-3-methyl-1H-quinoline-2,4-dione] | 13.5% | 19.8% | 15.8% | 1260 nM | 70.8% | 17.3% | 0.9% | 20.1% | 25.4% | 0%
COc1cc(Br)c2c(c1)NC(=O)C(C)(c1ccccc1)C2=O (stereo not drawn) [Example 7, 5-bromo-7-methoxy-3-methyl-3-phenyl-1H-quinoline-2,4-dione] | 25.4% | 29.1% | 30.5% | 119 nM | 71.1% | 12.8% | 12.4% | 30.3% | 1.5% | 0.8%
CC1(c2ccc([N+](=O)[O-])cc2)C(=O)Nc2cc(Cl)cc(Cl)c2C1=O (stereo not drawn) [Example 14, 5,7-dichloro-3-methyl-3-(4-nitro-phenyl)-1H-quinoline-2,4-dione] | 54.1% | 60.5% | 6.5% | 870 nM | 71.2% | 26.5% | 10.8% | 3.8% | 30.7% | 0%
CC1(c2ccc(Br)cc2Br)C(=O)Nc2cc(Cl)ccc2C1=O (stereo not drawn) [Example 45, 7-chloro-3-(2,4-dibromo-phenyl)-3-methyl-1H-quinoline-2,4-dione] | 23% | 60.3% | 42.3% | 2220 nM | 66% | 13% | 29.5% | 31.6% | 5.6% | 0%
